The text below walks through data of ChEMBL document CHEMBL3507680, “University of Dundee, Gates Library screen for HepG2 cell viability”.

This data set can be described thus: Human HepG2 cell viability assay in 384 well format. In kind it is toxicity, cell-based. More on the design: dose 125 nL, time 70.5 hour; concentration not given beside the values. The conditions noted are these: HepG2 cells, read-out: Inhibition.
Regarding `CN(C)C(C(=O)N1CCC(C#N)CC1)c1ccccc1F` (stereo not given), the cytotoxicity at 70.5 h is -5.19%.
For `Cc1noc([C@@H]2C[C@H]3CN(Cc4scnc4C)C[C@H]3O2)n1`, the cytotoxicity at 70.5 h was -4.75%.
For `CCN1CCC2(C=C(C(=O)N(C)C)c3ccccc32)CC1` the value was 0.372%; for `c1cc(CNc2ncc(-c3cnccn3)c([C@@H]3CCCO3)n2)ccn1`, -5.57%.
For `Fc1ccc(Oc2ccc(CNCC3CNc4ccnn4C3)cn2)cc1` (stereo not given) the value was -12.4%.
For `O=C(c1cccc(F)c1)N1CCC2(CC1)CC(N1CCOCC1)C2` the value was -14.8%; for `CN1CCc2nc(C3CCCN(S(=O)(=O)N4CCCC4)C3)ncc2C1` (stereo not given), 0.156%.
Take `CN(C)c1ncc2c(n1)CN(C1CC(C)(C)NC(C)(C)C1)C2=O`: the cytotoxicity at 70.5 h is -6.77%.
For `Cc1ccc(OCCNC(=O)C2CCOCC2)c(C)c1`, the cytotoxicity at 70.5 h was 35.7%.
Take `Cc1cc(N2CCCN(c3nc(C)nc(C)c3C)CC2)ccn1`: the cytotoxicity at 70.5 h is -11%.
For `CCCc1nc(N(C)CCN2CCCCCC2)c2cnn(C)c2n1` the value was -11%; for `CCOc1ccccc1-c1noc(CN(C)Cc2cnn(C)c2)n1`, 2%; for `COc1ccc(C(C)Nc2ncc(C(N)=O)cc2Cl)cc1F` (stereo not given), -10.7%.
For `CCOc1ccc(C(C)NC(=O)N2CCC(C(N)=O)CC2)cc1OC` (stereo not given) the value was -10.4%; for `COCC(=O)N1CCC([C@@H]2C[C@H](C(F)(F)F)n3nc(C)cc3N2)CC1`, -3.42%.
Take `Fc1ccc(-c2nnc(CN3CCn4c(nnc4C4CC4)C3)o2)cc1`: the cytotoxicity at 70.5 h was -5.47%.
As to `Cc1ccc(S(=O)(=O)NC(=O)c2c(C)noc2C(C)C)cc1C`, the cytotoxicity at 70.5 h was found to be 0.282%.
In the case of `COc1ccccc1-c1ncc(CN2CCCC(CCC(N)=O)C2)s1` (stereo not given), the cytotoxicity at 70.5 h is -10.1%.
In the case of `O=C1O[C@@H]2CN(Cc3ccccc3F)C[C@@H]2N1CCCN1CCOCC1`, the cytotoxicity at 70.5 h was 8.16%.
For `COCCN1CCOCC12CCN(Cc1ccn(C)n1)CC2` the value was -5.01%; for `CN(C)C(=O)CS(=O)(=O)Cc1cc(Cl)c2c(c1)OCCCO2`, 6.99%.
For `CN1C(=O)[C@H]2CC[C@@H]1CN(c1ncnc3ccsc13)C2` the value was 11.8%; for `O=C1NCC2=C1C(c1ccccc1)Nc1ccccc1N2` (stereo not given), -2.81%; for `CN(C)CC1CN(C(=O)Cc2ccccc2)Cc2nccn2C1` (stereo not given), 24%.
For `CC(C)Cc1cc(NC(=O)c2cccnc2)n(C)n1` the value was -9.43%.
As to `COc1ccc([C@@H]2NC(=O)N[C@H]3OCCC[C@H]32)cc1`, the cytotoxicity at 70.5 h was -4.38%.
For the molecule `CCc1ccccc1OCC(=O)Nc1ccnc(OCCN(C)C)c1`, the cytotoxicity at 70.5 h turned out to be 3.03%.
For `CC(CNC(=O)N1CCN(Cc2ccon2)CC1)N(C)C1CC1` (stereo not given) the value was -1.74%.
For `CN1C(=O)CC(c2ccccc2)C12CCN(CC1CC1)CC2` (stereo not given) the value was -11.2%; for `Cc1ncccc1CNc1ccc(OCCO)nc1`, -6.19%; for `CCN(Cc1nonc1C)C(=O)c1cnccn1`, -8.37%.
On to `COc1cc(Br)c(CNC2CCCNC2=O)cc1OC` (stereo not given), for which the cytotoxicity at 70.5 h was -0.0651%.
For `CCOC(=O)C1CCN(C(=O)CN2CCCC2c2ccsc2)CC1` (stereo not given) the value was -3.85%.
For `Cn1ccnc1CN1CCC2(COCCN(S(=O)(=O)C3CC3)C2)C1` (stereo not given) the value was -10.6%; for `Cc1cc(C)n(CC2CCCN2Cc2c(C)noc2C)n1` (stereo not given), 34.3%; for `O=C1OC2(CCNCC2)CN1CC(=O)N1CCC1c1cccs1` (stereo not given), -6.81%.
For the molecule `COCc1cnc2n1CCN(C(=O)c1oc3ccccc3c1C)C2C` (stereo not given), the cytotoxicity at 70.5 h was 18.3%.
For `Cc1nc(C)n(CC2CN(CCc3cccs3)CCO2)n1` (stereo not given) the value was -5.27%; for `CC(C)c1noc(CN(CCC2CCCCC2)CC(N)=O)n1`, -3.41%.
For `CCOc1cncc(N(C)CC(=O)NC)n1` the value was -7.85%; for `CCS(=O)(=O)N1CCC(NC(=O)c2cc3ccccc3cc2O)CC1`, 12.9%; for `Cc1cc(NS(=O)(=O)c2ccc(C(=O)O)cc2F)ccc1F`, -10.7%.
As for `O=C(NCc1nc(C2CC2)no1)N1CCOC(c2cccc(F)c2)C1` (stereo not given), the cytotoxicity at 70.5 h was determined as 0.958%.
Turning to `COCCN(CC1CCCO1)C(=O)CCNC(=O)c1ccccc1F` (stereo not given), the cytotoxicity at 70.5 h is -13.6%.
For `COc1c(C)cnc(CSc2nnc(C)s2)c1C` the value was -5.43%; for `COc1ccc(C2C3=C(COC3=O)Nc3[nH]nc(C)c32)cc1OC` (stereo not given), -22.8%; for `Cc1cc(C)c(CNC(=O)N2CCNC(=O)C2)c(=O)[nH]1`, -4.49%.
For `Cc1cc(NCc2csc(-c3ccco3)n2)ccc1C(N)=O` the value was -6.99%.
For `COC(=O)CCSc1nncn1-c1ccc(OC)nc1` the value was 4.09%; for `CC1(C(=O)NC2CCCC2)CN(c2cnccn2)CCO1` (stereo not given), -13.6%.
With `CCC(=O)N1CCN(C(=O)Cn2cccn2)CC1`, the cytotoxicity at 70.5 h is -4.66%.
For `COc1ccc(CN2CCc3c(nc(-c4ccccn4)[nH]c3=O)C2)cc1` the value was 13.1%; for `CN(C)C(=O)NCc1ncn2c1CN(Cc1ccco1)CCC2`, -6.46%; for `O=C(CCc1ccccc1)N1CCCC(c2n[nH]c3nccnc23)C1` (stereo not given), -6.72%.
For `N#CCCN(C(=O)CCc1cccnc1)c1ccc2c(c1)OCCO2` the value was -11.1%.
For `CC(C)c1nnc(CN2CC(n3cccn3)Cc3ccccc32)o1` (stereo not given), the cytotoxicity at 70.5 h is -4.11%.
For `COc1cccc(OC2CN(C(=O)c3ccoc3C)C2)c1` the value was 10.7%; for `CCCc1nnnn1Cc1cn2c(C)cccc2n1`, -2.3%; for `CCCC(=O)N1CCc2c(CNS(C)(=O)=O)cncc2C1`, -8.58%.
For `O=C(c1cscn1)N1CC[C@@H]2[C@@H]1CCN2CC1CCOCC1` the value was -1.87%.
For `CNC(=O)CN1CCC2(CC1)C[C@@H](O)[C@H](c1ccccc1)NC2=O` the value was -4.55%; for `Cc1nc(-c2cccc(N3CCC(NC4CCSC4)CC3)c2)cs1` (stereo not given), -1.58%; for `CC(=O)N1CCN(CCNc2ncc(Br)cc2C)CC1`, -1.98%.
`Cc1ccc(NS(=O)(=O)c2cnn(-c3ccccc3)c2)c(C(=O)O)c1`: the cytotoxicity at 70.5 h is -5.8%.
For `CC(CNC(=O)c1ccc(Cl)cc1F)N1CCN(C)CC1` (stereo not given), the cytotoxicity at 70.5 h was 13.3%.
On to `CC(C)Cn1ncc(C(=O)O)c1C1CC1`, for which the cytotoxicity at 70.5 h was -5.02%.
For `CSc1cccc(NC(=O)N2CCC3(CCC(=O)N(C4CC4)C3)CC2)c1` the value was -9.9%.
Take `c1ccc(-c2nnc(CN3CCCC3Cn3cncn3)o2)cc1` (stereo not given): the cytotoxicity at 70.5 h was -0.362%.
For `Cc1cnn(CCC(=O)N2CCCN(c3nc(C)cs3)CC2)c1` the value was -3.54%.
With `COc1cc(C(=O)NCC2CCCO2)nc2c(C)cc(F)cc12` (stereo not given), the cytotoxicity at 70.5 h was -25.4%.
Consider `CCOc1ccnc(N2CCN(C(=O)CCc3cnn(C)c3)CC2)n1`, for which the cytotoxicity at 70.5 h was -4.83%.
For `Cn1cnc2c1C(COCc1cccnc1)N(Cc1ccccc1)CC2` (stereo not given) the value was 2.08%.
Consider `Cn1ccnc1-c1cccc(NC(=O)NCCCN2CCOCC2)c1`, for which the cytotoxicity at 70.5 h is -2.94%.
In the case of `CCCS(=O)(=O)NC(=O)c1ccc(-n2nc(C)cc2C)cc1`, the cytotoxicity at 70.5 h is -6.42%.
As for `CN1CCCCC[C@@H]2[C@@H]1[C@H](c1ccccc1)CN2C(=O)c1cccnc1`, the cytotoxicity at 70.5 h amounted to 3.63%.
As for `Cc1cc(CNC(=O)c2ccno2)c(C)o1`, the cytotoxicity at 70.5 h was -7.21%.
For `Cc1ccn(CCNC(=O)C2(C)CC(c3ccccc3)=NO2)n1` (stereo not given) the value was -1.48%; for `CCc1nc(CCn2ccc3nc(OC)c(C#N)cc3c2=O)no1`, -4.1%; for `Cc1ccnn1CC(=O)N1CCN(C2CCc3ccccc3C2)CC1` (stereo not given), 3.04%.
For `O=C1OCCN1CCCN1CCCC1c1ccc(O)cc1` (stereo not given) the value was -3.89%.
In the case of `O=C(NCCNc1ccccn1)N1CCSCC1`, the cytotoxicity at 70.5 h was -5.96%.
For `Cc1[nH]c(=O)[nH]c(=O)c1CN1CCCC(CCc2ccccc2)C1` (stereo not given) the value was -5.9%.
For `Cc1cccc(OC2CCN(C(=O)c3ccc4c(c3)OCO4)CC2)n1` the value was -7.71%; for `Cn1c(-c2ccccc2Cl)nc2cc(C(=O)NCC3(CO)CC3)cnc21`, -10%; for `COc1ccc(CNC(=O)NCC2CCOC2)c(C(F)(F)F)c1` (stereo not given), -2.53%.
For `COCCC1COC2(CCN(C(=O)c3cccnc3)CC2)C1` (stereo not given) the value was -13%; for `Cc1cc(Nc2cnccn2)cc(C2CCCNC2)n1` (stereo not given), -2.88%; for `c1cnn(CC2CCCN2Cc2nc(-c3ccoc3)no2)c1` (stereo not given), 28.2%.
`O=C(NCC1CC1)[C@H]1C[C@H]2OCC[C@H]2N(CCc2ccccc2)C1`: the cytotoxicity at 70.5 h was -1.31%.
For the molecule `Cc1nc(CN2CCN(c3ncnc4ccccc34)CC2)no1`, the cytotoxicity at 70.5 h was found to be 4.67%.
For `Cc1c(F)cccc1S(=O)(=O)NCC(C)(C)CC(C)O` (stereo not given) the value was -5.55%.
For `Cc1cc(C)n(CC2CN(CC(=O)Nc3c(C)n[nH]c3C)CCO2)n1` (stereo not given) the value was -8.05%.
For `CN(C)c1nccc(N2CCO[C@H]3CN(Cc4ccco4)C[C@H]32)n1` the value was 3.82%; for `CCn1c(C)nnc1SCCn1cc(-c2nccs2)nn1`, -7.44%; for `CC(C)C(C)(C#N)NC(=O)CN1CCC(c2ccnn2CCO)CC1` (stereo not given), -3.64%.
For the molecule `O=S(=O)(Cc1ccccc1F)NCCCN1CCCCC1`, the cytotoxicity at 70.5 h was -1.2%.
For `O=c1[nH]c2cc3c(cc2cc1CN1CCCC1c1ccccn1)OCO3` (stereo not given) the value was -4.33%; for `Fc1ccc2[nH]c3c(c2c1)CCN1C(c2ccccn2)N2CCC31CC2` (stereo not given), 19%.
For `COc1cc(-n2cc(CCO)cn2)ccc1NC(C)=O` the value was -9.17%.
For `O=C(NCC(=O)N1CCC2(CC1)OCCO2)c1ccoc1`, the cytotoxicity at 70.5 h was -7.96%.
